Holding throughout (experiment): inhibition of tumour cell growth, NCI panel, 48 h
The test system of test [1] is MCF7 breast.
The subject of test [2] is SK-MEL-5 melanoma.
Test [3] deals with M14 melanoma.
Test [4] has as its system NCI-H460 lung.
The test system of test [5] is SK-MEL-28 melanoma.
In test [6] the test system is SR leukemia.
Test [7] concerns NCI/ADR-RES ovarian.
Test [8] relates to RPMI-8226 leukemia.
Test [9] deals with UACC-257 melanoma.

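Exposure lasted 48 hours, with cells grown in 96-well plates and compounds tested at five concentrations. Abbreviation: GI50, concentration required for 50% inhibition of growth. The concentration for full growth arrest is given as TGI.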 Where only a bound is given, the exact number is not on record here.

With `COC(=O)[C@@]12C(=O)C=CC(=O)[C@@H]1C1C(=CC2COC(C)=O)O[C@@H]2OC3(CCCCC3)O[C@H]12` (stereo partly specified), the TGI in test [1] was 32.3 µM; in [2], 32.5 µM; in test [3], 30.1 µM; in test [4], 32.9 µM; in test [5], 32.7 µM; in test [6] it was greater than 100 µM. The TGI in test [7] stood at 28.7 µM; in [8], 22.7 µM; in [9], 30.3 µM.

Take `COc1ccc2oc(=O)cc(C(c3ccc[nH]3)c3ccc[nH]3)c2c1`: the GI50 in test [1] was 0.108 µM; in test [2], 0.08 µM; in [3] it was 0.0837 µM; in test [4] it was 0.107 µM; in test [5], 0.874 µM; in [7], 0.0651 µM. Also, the results for the GI50 in [8] and in test [9] were 0.376 µM and 0.468 µM, respectively. Moreover, the TGI is 14.5 µM in test [1]; 0.141 µM in test [2]; 0.191 µM in test [3]; 10.3 µM in [4]; 14 µM in test [5]; 3.79 µM in test [6]. Further, the TGI turned out to be 5.91 µM in [7], 3.64 µM in test [8] and 18 µM in test [9].

`Clc1ccc(CSC(Cn2ccnc2)c2ccc(Cl)cc2Cl)cc1` (stereo unspecified): the GI50 in test [1] is 1.6 µM; in [2] it was 1.61 µM; in [3] it was 1.69 µM; in test [4], 1.47 µM; in [5], 1.69 µM; in [6] it was 2.3 µM. Further, the GI50 in test [7] was 1.46 µM; in test [8], 1.38 µM; in [9] it was 1.43 µM. Also, the TGI in test [1] was determined as 2.99 µM; in test [2], 2.96 µM; in test [3], 3.12 µM; in test [4] it was 2.78 µM; in test [5], 3.06 µM; in test [6] it was 5.8 µM. Besides, the TGI in test [7] is 3.05 µM; in test [8] it was 4.49 µM; in test [9], 2.86 µM.

As to `F`, the GI50 in test [1] is 4020 µM; in [2], 1420 µM; in [3], 2260 µM; in test [4] it was 5410 µM; in test [6] it was greater than 6870 µM; in test [7], 2530 µM. The results for the GI50 in [8] and in test [9] were 3060 µM and 2160 µM, respectively. The TGI is greater than 6870 µM in [1]; 2700 µM in test [2]; 5900 µM in test [3]; greater than 6870 µM in [4]; greater than 6870 µM in test [6]; greater than 6870 µM in [7]. Further, the results for the TGI in test [8] and in test [9] were greater than 6870 µM and 4940 µM, respectively.

As for `COc1cc2c(cc1O)CC[C@@H]1[C@@H]2CC[C@]2(C)[C@@H](NCCN(C)C)CC[C@@H]12`, the GI50 in test [1] was 0.127 µM; in test [2], 0.0694 µM; in test [3], 0.0822 µM; in test [4], 0.324 µM; in test [5], 0.0883 µM; in [6], 0.0989 µM. The GI50 in [8] is 0.159 µM; in test [9], 0.114 µM. Moreover, the TGI in test [1] came out at 0.514 µM; in test [2] it was 0.166 µM; in test [3], 0.213 µM; in test [4], 0.823 µM; in test [5], 0.262 µM; in test [6], 0.437 µM. For the same compound, the values for the TGI in test [8] and in [9] were 0.665 µM and 0.254 µM, respectively.

`N#Cc1ccccc1NC(=O)/C(=N\N)C(C(=O)c1ccncc1)C1OC(=O)c2ccccc21` (stereo unspecified): the TGI in test [2], in [3], in test [4], in [5], in [6] and in [8] was greater than 100 µM throughout. The same compound registered a TGI in [9] greater than 100 µM.

For the compound `COC(=O)C1=C(c2ccc(OC)c(OC)c2)OC(c2ccc(OC)c(OC)c2)C1` (stereo unspecified), the TGI is 34.3 µM in test [2]; greater than 100 µM in test [3]; greater than 100 µM in [4]; greater than 100 µM in test [5]; greater than 100 µM in test [6]; greater than 100 µM in [8]. Besides, the TGI in test [9] was greater than 100 µM.

Regarding `COc1c(C=O)c2c(c(OC)c1OC)-c1ccc(OC)c(=O)cc1[C@@H](NC(C)=O)CC2`, the TGI in [1] is 28.4 µM; in test [2], 0.272 µM; in test [3], greater than 25.2 µM; in test [4] it was 18.7 µM; in [5], greater than 100 µM; in test [6], greater than 100 µM. Also, the TGI is 47.2 µM in [8] and greater than 88.8 µM in [9].

With `CC(C)/C=C1\CCC(CN2CCCC2)C1=O` (stereo unspecified), the TGI is 33.2 µM in test [2]; 24.2 µM in test [3]; greater than 79.7 µM in test [4]; 32.9 µM in [5]; 8.09 µM in test [6]; 3.5 µM in test [8]. The TGI in [9] was 33.9 µM.

For `Cc1ccc2c(c1)C(C)Cc1c(ncnc1-n1cnc3ccccc31)N2C` (stereo unspecified), the GI50 is 0.0986 µM in test [1]; 0.434 µM in test [2]; 0.242 µM in test [3]; 0.38 µM in [4]; 12.3 µM in [5]; 0.0649 µM in test [6]. Further, the GI50 in [7] is 0.275 µM; in [8] it was 0.337 µM. Also, the TGI in test [1] worked out at 13.1 µM; in [2], 10.2 µM; in test [3], 15.7 µM; in test [4] it was 12 µM; in [5], 29 µM; in test [6], 11 µM. In addition, the results for the TGI in test [7] and in [8] were 14.8 µM and 15.9 µM, respectively.

In the case of `Clc1ncnc(Cl)c1Cl`, the TGI in [1], in test [2], in test [3], in test [4], in test [5] and in test [6] was greater than 100 µM in each case. Besides, the TGI in [7] and in test [8] was greater than 100 µM in each case.

On to `CC1CC[C@]2(C(=O)O)CCC3(COC(=O)/C=C\c4ccc(O)cc4)C(=CCC4[C@@]5(C)CC[C@H](O)C(C)(C)C5CC[C@]43C)[C@@H]2[C@H]1C` (stereo partly specified), for which the TGI in [2] is 40.7 µM; in test [3] it was 37.7 µM; in test [4] it was 35.5 µM; in [5], 35.5 µM; in test [6], 76.1 µM; in test [8], greater than 100 µM. For the same compound, the TGI in test [9] amounted to 69.6 µM.

The values are drawn from PubChem BioAssay (NCI).
